Measurements: US7541156B1, “Method of identifying antinociceptive compounds using protease activated receptor-2” (priority 2000, dated 2009)
“Also recorded” adds a separate entry of the source.

Columns and labels:
PAR-2 = biological target: T1, PAR-2 (Homo sapiens, UniProt P55085); settings: Blackhart et al. 1996; cited from earlier work
T1 sequence (P55085 26-397): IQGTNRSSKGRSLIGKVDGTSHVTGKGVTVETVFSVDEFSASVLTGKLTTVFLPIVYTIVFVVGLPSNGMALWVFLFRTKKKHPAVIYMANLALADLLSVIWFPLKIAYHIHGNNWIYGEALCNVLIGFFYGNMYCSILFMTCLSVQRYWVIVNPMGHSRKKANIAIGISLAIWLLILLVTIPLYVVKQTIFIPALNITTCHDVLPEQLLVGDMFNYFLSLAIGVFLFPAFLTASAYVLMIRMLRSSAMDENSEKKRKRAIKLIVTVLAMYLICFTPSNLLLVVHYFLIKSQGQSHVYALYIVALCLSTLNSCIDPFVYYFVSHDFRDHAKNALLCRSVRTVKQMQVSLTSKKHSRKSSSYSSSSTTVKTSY

[1] = test system: pancreatic afferent neurons / spinal segments T8-T10; experiment: c-FOS expression in spinal cord segments after pancreatic intraductal injection; assay type: in vivo, rat
Experimental: Intraductal (pancreatic duct) injection. To administer the necessary peptides directly into the rat pancreatic duct we followed a modified protocol, previously described by Kim et al. (1996). In brief, rats were anesthetized i.p. with nembutal sodium (Abbot Laboratories, Chicago, Ill.) (50 mg/kg body weight). The peritoneum was incised to expose the duodenum and the duodenal loop was pulled out. The pancreatic duct entering the duodenum was identified under dissecting microscope and a small niche was made into the duct with a 30-gauge needle. A polyethylene 10 tubing (0.61 mm outer diameter) (Becton Dickinson and Company, Franklin Lakes, N.J.) was guided into the duct and tied to secure its position. The common bile duct was ligated close to the liver to prevent entry of the injected substance into the liver. Similarly the duct was ligated near its entry into the duodenum. The position of the tube into the pancreatic duct was confirmed by freely flowing bile through the tubing. […] Thirty minutes later Capsaicin 0.5 mg/kg (total volume 500 μl) or vehicle (1×PBS, 10% ETOH, 1% Tween) was injected to half of the AcPep or CoPep injected rats. Three rats were included in each treatment group (n=3 for number of experiments). The tubing was carefully removed and bile flow from the liver into the duodenum was re-established. The abdominal cavity was closed with sutures. Rats were sacrificed 2.5 hrs after the initial injection.
C-fos staining. Rats were anesthetized with sodium pentobarbital (50 mg/kg i.p.) and perfused with 200 mls PBS followed by 500 mls ice-cold freshly prepared 4% paraformaldehyde in PBS. Spinal cord (level T5-T13) was removed, post-fixed in 4% paraformaldehyde for 18 hrs at 4° C. and placed in PBS (pH 7.4) containing 30% sucrose for 24 hrs at 4° C. Frozen sections (40 μm) were cut on a cryostat and stored as floating sections in PBS at 4° C. Every third section was stained for c-fos with a rabbit polyclonal serum, 1:1000 dilution, (c-fos, Ab-5, Oncogene Research Products) utilizing manufacturer's protocol. Antibody staining was visualized using a biotinylated secondary antisera and Vectastain ABC peroxidase kit with DAB as substrate. Sections were mounted on Superfrost Plus slides (VWR Scientific, West Chester, Pa.) and dehydrated. The number of c-FOS immunoreactive (IR) neurons were counted in 10 randomly chosen sections per segment under brightfield illumination and then averaged.
Statistics. Release data are presented as the mean± standard error of the mean (SEM) of wells from three separate experiments. […] Intraductal injection studies were analyzed using a repeated measure ANOVA and individual means were compared using a Newman-Keuls multiple comparison test. […]

PAR-1 = biological target: T2, PAR-1 (Homo sapiens, UniProt P25116); settings: Blackhart et al. 1996; cited from earlier work
T2 sequence (P25116 22-425): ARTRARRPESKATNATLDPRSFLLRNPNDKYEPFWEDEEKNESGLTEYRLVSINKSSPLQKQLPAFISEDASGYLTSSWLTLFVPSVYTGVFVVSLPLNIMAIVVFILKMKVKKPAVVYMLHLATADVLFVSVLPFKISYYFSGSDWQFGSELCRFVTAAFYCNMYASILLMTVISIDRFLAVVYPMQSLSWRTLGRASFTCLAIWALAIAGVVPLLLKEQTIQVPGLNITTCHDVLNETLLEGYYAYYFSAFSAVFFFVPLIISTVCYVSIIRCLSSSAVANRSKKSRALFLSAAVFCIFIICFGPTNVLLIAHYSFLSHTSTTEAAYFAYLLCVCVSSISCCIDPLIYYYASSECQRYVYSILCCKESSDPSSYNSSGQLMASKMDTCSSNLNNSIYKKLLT

SLIGRL (PEPTIDE (1)..(6) PAR-2 activating peptide; listed as Rattus sp.) [AcPep]
activation of PAR-2 (PAR-2): only activates PAR-2
c-FOS IR neurons in segments T8-T10, peptide alone ([1]; 100 μM infused into the pancreatic duct, 2.5 hours, compared to CoPep): more c-FOS IR neurons; also recorded: does increase c-FOS expression
c-FOS expression in spinal segments T8-T10, peptide alone ([1]; intraductal injection of AcPep 10 μM, 2.5 hours later, compared to control rats): significantly increased
Capsaicin-evoked c-FOS expression in segments T8-T10 ([1]; peptide 100 μM intraductal, followed 30 min later by Capsaicin 0.5 mg/kg, 2.5 hours): more c-FOS; also recorded: enhanced Capsaicin-evoked c-FOS expression
activation of PAR-1 (PAR-1): does not activate PAR-1
